Consider seven cell lines from the supplement of paper PMC10307832.

Holding throughout (test): relative viability (nuclei count vs DMSO), 5 days (fraction); higher = more cells survive
Compound in the experiment “CX-5461 + OSI-027”: Cc1cnc(CNC(=O)c2c(=O)c3ccc(N4CCCN(C)CC4)nc3n3c2sc2ccccc23)cn1 [CX-5461] + COc1cccc2cc(-c3nc([C@H]4CC[C@H](C(=O)O)CC4)n4ncnc(N)c34)[nH]c12 [OSI-027] (partner 0.5 µM)
A digest of the protocol: (§1)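 Five library-drug doses in √10 steps were combined with a fixed anchor-drug dose, or a single drug was given alone, by pin tool to lung cancer cell lines in 1536-well plates the day after seeding. Nuclei were stained and counted after 5 days. Relative viability is the nuclei count in treated wells over that in vehicle wells, taken as the median of duplicate plates.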

Compound in the experiment “CX-5461 + Tozasertib”: Cc1cnc(CNC(=O)c2c(=O)c3ccc(N4CCCN(C)CC4)nc3n3c2sc2ccccc23)cn1 [CX-5461] + Cc1cc(Nc2cc(N3CCN(C)CC3)nc(Sc3ccc(NC(=O)C4CC4)cc3)n2)n[nH]1 [Tozasertib] (partner 0.1 µM)
The gist of the method:
as §1

Compound in the experiment “CX-5461 + Linsitinib”: Cc1cnc(CNC(=O)c2c(=O)c3ccc(N4CCCN(C)CC4)nc3n3c2sc2ccccc23)cn1 [CX-5461] + C[C@]1(O)C[C@@H](c2nc(-c3ccc4ccc(-c5ccccc5)nc4c3)c3c(N)nccn32)C1 [Linsitinib] (partner 1 µM)
The gist of the method: as §1

Compound in the experiment “CX-5461 + Pictilisib”: Cc1cnc(CNC(=O)c2c(=O)c3ccc(N4CCCN(C)CC4)nc3n3c2sc2ccccc23)cn1 [CX-5461] + CS(=O)(=O)N1CCN(Cc2cc3nc(-c4cccc5[nH]ncc45)nc(N4CCOCC4)c3s2)CC1 [Pictilisib] (partner 1 µM)
The gist of the method: as §1

As to NCI-H3122, the relative viability with CX-5461 + OSI-027 (first compound 0.01 µM) turned out to be 1.07; with CX-5461 + OSI-027 (first compound 0.03162 µM) it was 0.882; with CX-5461 + OSI-027 (first compound 0.1 µM) it was 0.938; in the experiment with CX-5461 + OSI-027 (first compound 0.3162 µM) it was 0.672; with CX-5461 + OSI-027 (first compound 1 µM) it was 0.668; in the experiment with CX-5461 + Tozasertib (first compound 0.01 µM) it was 0.389. In addition, the relative viability with CX-5461 + Tozasertib (first compound 0.03162 µM) worked out at 0.537; with CX-5461 + Tozasertib (first compound 0.1 µM), 0.352; in the experiment with CX-5461 + Tozasertib (first compound 0.3162 µM), 0.314; with CX-5461 + Tozasertib (first compound 1 µM), 0.262; with CX-5461 + Linsitinib (first compound 0.01 µM) it was 0.99; with CX-5461 + Linsitinib (first compound 0.03162 µM), 1.05. The relative viability with CX-5461 + Linsitinib (first compound 0.1 µM) came to 0.994; with CX-5461 + Linsitinib (first compound 0.3162 µM) it was 1.1; in the experiment with CX-5461 + Linsitinib (first compound 1 µM), 0.973; with CX-5461 + Pictilisib (first compound 0.01 µM), 0.558; with CX-5461 + Pictilisib (first compound 0.03162 µM), 0.657; with CX-5461 + Pictilisib (first compound 0.1 µM) it was 0.617. Further, the relative viability with CX-5461 + Pictilisib (first compound 0.3162 µM) worked out at 0.533; with CX-5461 + Pictilisib (first compound 1 µM), 0.608.

For PC-3 [JPC-3], the relative viability with CX-5461 + OSI-027 (first compound 0.01 µM) is 0.828; with CX-5461 + OSI-027 (first compound 0.03162 µM) it was 0.811; in the experiment with CX-5461 + OSI-027 (first compound 0.1 µM), 0.773; with CX-5461 + OSI-027 (first compound 0.3162 µM), 0.668; in the experiment with CX-5461 + OSI-027 (first compound 1 µM) it was 0.707; with CX-5461 + Tozasertib (first compound 0.01 µM) it was 0.899. Moreover, the relative viability was found to be 0.947 with CX-5461 + Tozasertib (first compound 0.03162 µM); 0.851 with CX-5461 + Tozasertib (first compound 0.1 µM); 0.792 with CX-5461 + Tozasertib (first compound 0.3162 µM); 0.847 in the experiment with CX-5461 + Tozasertib (first compound 1 µM); 0.937 with CX-5461 + Linsitinib (first compound 0.01 µM); 0.885 with CX-5461 + Linsitinib (first compound 0.03162 µM). Also, the relative viability in the experiment with CX-5461 + Linsitinib (first compound 0.1 µM) turned out to be 0.933; with CX-5461 + Linsitinib (first compound 0.3162 µM), 0.936; with CX-5461 + Linsitinib (first compound 1 µM) it was 0.918; with CX-5461 + Pictilisib (first compound 0.01 µM), 0.82; with CX-5461 + Pictilisib (first compound 0.03162 µM), 0.857; with CX-5461 + Pictilisib (first compound 0.1 µM), 0.829. The relative viability in the experiment with CX-5461 + Pictilisib (first compound 0.3162 µM) turned out to be 0.697; in the experiment with CX-5461 + Pictilisib (first compound 1 µM), 0.75.

PC-14: the relative viability in the experiment with CX-5461 + OSI-027 (first compound 0.01 µM) came to 0.927; in the experiment with CX-5461 + OSI-027 (first compound 0.03162 µM) it was 1.01; in the experiment with CX-5461 + OSI-027 (first compound 0.1 µM), 0.85; in the experiment with CX-5461 + OSI-027 (first compound 0.3162 µM) it was 0.729; with CX-5461 + OSI-027 (first compound 1 µM), 0.236; with CX-5461 + Tozasertib (first compound 0.01 µM) it was 0.71. In addition, the relative viability is 0.642 with CX-5461 + Tozasertib (first compound 0.03162 µM); 0.618 with CX-5461 + Tozasertib (first compound 0.1 µM); 0.293 with CX-5461 + Tozasertib (first compound 0.3162 µM); 0.492 with CX-5461 + Tozasertib (first compound 1 µM); 0.954 in the experiment with CX-5461 + Linsitinib (first compound 0.01 µM); 0.992 with CX-5461 + Linsitinib (first compound 0.03162 µM). The relative viability with CX-5461 + Linsitinib (first compound 0.1 µM) came to 1.03; in the experiment with CX-5461 + Linsitinib (first compound 0.3162 µM) it was 0.987; in the experiment with CX-5461 + Linsitinib (first compound 1 µM), 0.878; with CX-5461 + Pictilisib (first compound 0.01 µM), 0.788; in the experiment with CX-5461 + Pictilisib (first compound 0.03162 µM), 1.05; with CX-5461 + Pictilisib (first compound 0.1 µM), 0.972. For the same cell line, the relative viability with CX-5461 + Pictilisib (first compound 0.3162 µM) is 0.583; with CX-5461 + Pictilisib (first compound 1 µM), 0.636.

As to RERF-LC-KJ, the relative viability was 0.56 with CX-5461 + OSI-027 (first compound 0.01 µM); 0.628 with CX-5461 + OSI-027 (first compound 0.03162 µM); 0.572 with CX-5461 + OSI-027 (first compound 0.1 µM); 0.528 in the experiment with CX-5461 + OSI-027 (first compound 0.3162 µM); 0.434 with CX-5461 + OSI-027 (first compound 1 µM); 0.449 in the experiment with CX-5461 + Tozasertib (first compound 0.01 µM). Further, the relative viability with CX-5461 + Tozasertib (first compound 0.03162 µM) was 0.516; with CX-5461 + Tozasertib (first compound 0.1 µM) it was 0.287; in the experiment with CX-5461 + Tozasertib (first compound 0.3162 µM), 0.509; with CX-5461 + Tozasertib (first compound 1 µM), 0.245; in the experiment with CX-5461 + Linsitinib (first compound 0.01 µM) it was 0.834; in the experiment with CX-5461 + Linsitinib (first compound 0.03162 µM) it was 0.944. The relative viability in the experiment with CX-5461 + Linsitinib (first compound 0.1 µM) is 0.972; in the experiment with CX-5461 + Linsitinib (first compound 0.3162 µM), 0.866; in the experiment with CX-5461 + Linsitinib (first compound 1 µM), 0.797; in the experiment with CX-5461 + Pictilisib (first compound 0.01 µM), 0.466; with CX-5461 + Pictilisib (first compound 0.03162 µM), 0.601; in the experiment with CX-5461 + Pictilisib (first compound 0.1 µM) it was 0.565. For the same cell line, the relative viability with CX-5461 + Pictilisib (first compound 0.3162 µM) came out at 0.538; with CX-5461 + Pictilisib (first compound 1 µM), 0.5.

As to SK-LU-1, the relative viability in the experiment with CX-5461 + OSI-027 (first compound 0.01 µM) came out at 0.347; in the experiment with CX-5461 + OSI-027 (first compound 0.03162 µM) it was 0.321; with CX-5461 + OSI-027 (first compound 0.1 µM), 0.386; with CX-5461 + OSI-027 (first compound 1 µM), 0.203; with CX-5461 + Tozasertib (first compound 0.01 µM), 0.33; in the experiment with CX-5461 + Tozasertib (first compound 0.03162 µM), 0.339. The relative viability with CX-5461 + Tozasertib (first compound 0.1 µM) came to 0.247; with CX-5461 + Tozasertib (first compound 1 µM) it was 0.189; with CX-5461 + Linsitinib (first compound 0.01 µM) it was 1.31; in the experiment with CX-5461 + Linsitinib (first compound 0.03162 µM), 1.11; with CX-5461 + Linsitinib (first compound 0.1 µM), 0.945; with CX-5461 + Linsitinib (first compound 0.3162 µM) it was 0.921. Further, the relative viability is 0.497 with CX-5461 + Linsitinib (first compound 1 µM); 0.659 in the experiment with CX-5461 + Pictilisib (first compound 0.01 µM); 0.616 in the experiment with CX-5461 + Pictilisib (first compound 0.03162 µM); 0.602 in the experiment with CX-5461 + Pictilisib (first compound 0.1 µM); 0.573 with CX-5461 + Pictilisib (first compound 0.3162 µM); 0.417 with CX-5461 + Pictilisib (first compound 1 µM).

Regarding SK-MES-1, the relative viability came out at 0.586 with CX-5461 + OSI-027 (first compound 0.01 µM); 0.57 in the experiment with CX-5461 + OSI-027 (first compound 0.03162 µM); 0.582 with CX-5461 + OSI-027 (first compound 0.1 µM); 0.607 with CX-5461 + OSI-027 (first compound 0.3162 µM); 0.372 with CX-5461 + OSI-027 (first compound 1 µM); 1 in the experiment with CX-5461 + Tozasertib (first compound 0.01 µM). The relative viability with CX-5461 + Tozasertib (first compound 0.03162 µM) amounted to 0.977; with CX-5461 + Tozasertib (first compound 0.1 µM), 0.728; with CX-5461 + Tozasertib (first compound 0.3162 µM), 0.815; in the experiment with CX-5461 + Tozasertib (first compound 1 µM), 0.294; with CX-5461 + Linsitinib (first compound 0.01 µM), 1.16; with CX-5461 + Linsitinib (first compound 0.03162 µM) it was 1.12. For the same cell line, the relative viability with CX-5461 + Linsitinib (first compound 0.1 µM) was found to be 1.1; with CX-5461 + Linsitinib (first compound 0.3162 µM) it was 1.11; with CX-5461 + Linsitinib (first compound 1 µM), 0.999; with CX-5461 + Pictilisib (first compound 0.01 µM), 0.391; with CX-5461 + Pictilisib (first compound 0.03162 µM) it was 0.352; with CX-5461 + Pictilisib (first compound 0.1 µM), 0.402. The relative viability with CX-5461 + Pictilisib (first compound 0.3162 µM) amounted to 0.324; in the experiment with CX-5461 + Pictilisib (first compound 1 µM), 0.333.

For SW 1573, the relative viability with CX-5461 + OSI-027 (first compound 0.01 µM) turned out to be 0.61; in the experiment with CX-5461 + OSI-027 (first compound 0.03162 µM) it was 0.621; with CX-5461 + OSI-027 (first compound 0.1 µM) it was 0.401; in the experiment with CX-5461 + OSI-027 (first compound 0.3162 µM), 0.477; in the experiment with CX-5461 + OSI-027 (first compound 1 µM), 0.179; with CX-5461 + Tozasertib (first compound 0.01 µM), 0.183. Also, the relative viability amounted to 0.161 with CX-5461 + Tozasertib (first compound 0.03162 µM); 0.147 with CX-5461 + Tozasertib (first compound 0.1 µM); 0.172 with CX-5461 + Tozasertib (first compound 0.3162 µM); 0.166 with CX-5461 + Tozasertib (first compound 1 µM); 0.782 with CX-5461 + Linsitinib (first compound 0.01 µM); 0.84 in the experiment with CX-5461 + Linsitinib (first compound 0.03162 µM). In addition, the relative viability in the experiment with CX-5461 + Linsitinib (first compound 0.1 µM) came out at 0.977; in the experiment with CX-5461 + Linsitinib (first compound 0.3162 µM), 0.828; with CX-5461 + Linsitinib (first compound 1 µM), 0.907; in the experiment with CX-5461 + Pictilisib (first compound 0.01 µM), 0.56; in the experiment with CX-5461 + Pictilisib (first compound 0.03162 µM), 0.471; in the experiment with CX-5461 + Pictilisib (first compound 0.1 µM), 0.461. Further, the relative viability with CX-5461 + Pictilisib (first compound 0.3162 µM) was determined as 0.59; with CX-5461 + Pictilisib (first compound 1 µM), 0.452.
